The compounds below were run against T1, Bcl-2-related protein A1 (Homo sapiens, UniProt Q16548) (assay: inhibitors of Bim binding to Bfl-1, dose response, biochemical, multiplexed, bead-based flow cytometry (AID 1320)). Conditions: inactive by the depositor's call; pH 7.4; 4 °C.
T1 sequence (Q16548 whole entry): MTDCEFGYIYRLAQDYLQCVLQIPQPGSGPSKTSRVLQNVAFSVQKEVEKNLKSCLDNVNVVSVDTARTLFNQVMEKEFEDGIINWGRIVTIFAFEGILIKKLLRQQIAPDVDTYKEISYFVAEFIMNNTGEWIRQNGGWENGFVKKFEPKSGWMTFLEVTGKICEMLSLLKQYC
`CN1CCN(C2=C(Cl)C(=O)C(c3cnc(N4CCCCC4)s3)=C(Cl)C2=O)CC1` was tested, and the EC50 was 0.01 µM. `Cc1ccc(-c2ccc(/C=C/C(=O)c3ccccc3)o2)cc1` showed an EC50 of 7.03 µM. `CCN(CC)c1ccc(-c2nn3c(-c4ccccc4OC)nnc3s2)cc1` gave an EC50 of 40.8 µM. `CCN(CC)c1ccc(-c2nn3c(-c4n[nH]c5c4CCC5)nnc3s2)cc1` showed an EC50 of 28.6 µM. With `CN(C)c1ncc(C2=C(Cl)C(=O)C(N3CCCC3)=C(Cl)C2=O)s1` the EC50 was 0.04 µM. For `O=C(/C=C/c1ccc(-c2ccccc2[N+](=O)[O-])o1)c1ccccc1`, the EC50 was 2.61 µM. In the case of `c1ccc(C2=Nc3cccc4cccc(c34)N2)cc1`, the EC50 is reported as 26.2 µM. Compound `CCN(CC)c1ccc(NC(=O)c2ccccc2Br)cc1S(=O)(=O)Nc1ccccc1OC` has an EC50 of 5.4 µM. `Cc1ccc(/C=C2/NC(=O)N(Cc3ccc(Br)cc3)C2=O)o1` gave an EC50 of 5.22 µM. `CCOC(=O)c1c(NC(C)=O)sc2c(O)c(Br)cc(Br)c12` showed an EC50 of 17.8 µM. `COc1ccc(N2C(=O)C(=Cc3cccs3)NC2=S)cc1` showed an EC50 of 3.86 µM. Compound `O=C1CSc2ccc(C(=O)Nc3cccc(S(=O)(=O)Nc4ccc(Br)cc4)c3)cc2N1` has an EC50 of 5.81 µM. Compound `CCOc1ccc(-n2cc(-c3ccc(OC)c(OC)c3)[nH]c2=S)cc1` has an EC50 of 0.68 µM. Work on `CCOC(=O)c1ccc(/N=c2/ssnc2Cl)cc1` yielded an EC50 of 37.5 µM. `Cc1ccc(-c2nc3c(c(=O)[nH]c(=O)n3Cc3ccccc3)n2Cc2ccccc2)o1` was tested, and the EC50 was 8.43 µM. Work on `CC1N(C)c2cccc3cccc(c23)N1C` [1,2,3-trimethyl-2,3-dihydro-1H-perimidine] yielded an EC50 of 2.46 µM. `Cc1c(/N=C2\C=CC(=O)c3ccccc32)c(=O)n(-c2ccccc2)n1C` [1,5-dimethyl-4-[(4-oxo-1-naphthalenylidene)amino]-2-phenyl-3-pyrazolone] showed an EC50 of 53.5 µM. For `Cc1ccc(O)c(NC2=C(Cl)C(=O)N(Cc3ccccc3)C2=O)c1` [1-benzyl-3-chloro-4-(2-hydroxy-5-methylanilino)pyrrole-2,5-dione], the EC50 was 13.8 µM. With `Cc1ccc(C(=O)/C=C/c2ccc(-c3ccc(C)cc3)o2)cc1` [1-p-Tolyl-3-(5-p-tolyl-furan-2-yl)-propenone] the EC50 was 3.23 µM. For `COc1ccc(/C=C(/C(=O)c2cccs2)N2C=CC=CC2=C(C#N)C#N)cc1` [2-[1-[(Z)-1-(4-methoxyphenyl)-3-oxidanylidene-3-thiophen-2-yl-prop-1-en-2-yl]pyridin-2-ylidene]propanedinitrile], the EC50 was 2.23 µM. `Cc1ccc(-c2cc(-c3ccc(Cl)cc3)c(C#N)c(N)n2)o1` [2-azanyl-4-(4-chlorophenyl)-6-(5-methylfuran-2-yl)pyridine-3-carbonitrile] gave an EC50 of 2.65 µM.

Same assay, conditions: pH 7.4; 4 °C
Compound `CN1CCc2cccc3c2[C@@H]1Cc1ccc(O)c(O)c1-3` has an EC50 of 15.1 µM. `O=C(Nc1ccc2nc(-c3ccco3)c(-c3ccco3)nc2c1)N1CCCCCC1` was tested, and the EC50 was 0.92 µM. `CCN1C(=O)/C(=C/C=C2\C=CN(CC)c3ccccc32)SC1=S` showed an EC50 of 3.6 µM. Compound `CCC(/C=C1\Sc2ccc(OC)cc2N1CCO)=C\c1sc2ccc(OC)cc2[n+]1CCO` has an EC50 of 20.3 µM. `N#Cc1cc(-c2ccccc2)nn1-c1ccccc1` gave an EC50 of 2.02 µM. For `Cc1ccc(-c2cc(-c3ccc(F)cc3)c(C#N)c(N)n2)o1`, the EC50 was 5.2 µM. For `Cc1c(N=C2C(=O)N(c3ccccc3Cl)C(=O)C2Cl)c(=O)n(-c2ccccc2)n1C` (stereo not given), the EC50 was 6.04 µM. `CCN=c1scc(C)n1N=Cc1ccc(O)c(O)c1O` gave an EC50 of 19.6 µM. In the case of `Cc1cccc(N2C(=S)C(C#N)C(=O)NC2c2cccs2)c1` (stereo not given), the EC50 is reported as 18.3 µM. `O=C1C(Cl)=C(N2CCN(c3ccccc3[N+](=O)[O-])CC2)C(=O)c2ccccc21` gave an EC50 of 0.36 µM. `c1ccc(-c2nc(N3CCOCC3)[s+]n2-c2ccccc2)cc1` was tested, and the EC50 was 0.05 µM. `Cc1ccc(C)c(/C=C/C(=O)c2ccccc(=O)c2O)c1` gave an EC50 of 8.74 µM. With `O=C(NC1=C(Nc2ccc(Cl)cc2)C(=O)c2ccccc2C1=O)c1ccccc1` the EC50 was 2.91 µM. In the case of `CCN(CC)S(=O)(=O)c1cccc(C(=O)NN=Cc2ccc(O)c(O)c2O)c1`, the EC50 is reported as 6.41 µM. `O=C(Nc1ccc2nc(-c3ccco3)c(-c3ccco3)nc2c1)N1CCN(c2ccccn2)CC1` gave an EC50 of 5.94 µM. For `O=C(c1ccccc1)c1ccc2nc(-c3ccco3)c(-c3ccco3)nc2c1`, the EC50 was 9.94 µM. With `CCOc1ccccc1CNc1ccc(O)cc1` the EC50 was 1.13 µM. Work on `CCN1/C(=C/c2ccc3cc(C)ccc3[n+]2CC)Sc2cc(C)c(C)cc21` yielded an EC50 of 16.9 µM. In the case of `COc1ccc(-n2cc(-c3ccc(OC)c(OC)c3)[nH]c2=S)cc1`, the EC50 is reported as 1.58 µM. `O=c1[nH]c(O)c(Cc2ccc(-c3cc(Cl)ccc3[N+](=O)[O-])o2)c(=O)[nH]1` was tested, and the EC50 was 1.24 µM. `O=C(NCCCO)Nc1ccc2nc(-c3ccco3)c(-c3ccco3)nc2c1` [1-[2,3-bis(2-furanyl)-6-quinoxalinyl]-3-(3-hydroxypropyl)urea] gave an EC50 of 1.25 µM. `O=C(NCc1ccccc1)c1ccc2nc(-c3ccco3)c(-c3ccco3)nc2c1` [2,3-bis(furan-2-yl)-N-(phenylmethyl)quinoxaline-6-carboxamide] gave an EC50 of 3.06 µM. `COc1ccc2nc(-c3ccco3)c(-c3ccco3)nc2c1` [2,3-di-2-furyl-6-methoxyquinoxaline] showed an EC50 of 4.93 µM. `O=C(NCc1ccccn1)c1ccc2nc(-c3ccco3)c(-c3ccco3)nc2c1` [2,3-di-2-furyl-N-(pyridin-2-ylmethyl)quinoxaline-6-carboxamide] gave an EC50 of 3.66 µM. `O=C(Nc1ccccc1)c1ccc2nc(-c3ccco3)c(-c3ccco3)nc2c1` [2,3-di-2-furyl-N-phenyl-6-quinoxalinecarboxamide] showed an EC50 of 7.56 µM. In the case of `Cc1cccc(NC2=NC(=O)C(=CC=Cc3ccco3)S2)c1C` [2-(2,3-Dimethyl-phenylamino)-5-[(E)-3-furan-2-yl-prop-2-en-(Z)-ylidene]-thiazol-4-one], the EC50 is reported as 3.17 µM. `c1coc(C2=Nc3cccc4cccc(c34)N2)c1` [2-(2-furanyl)-1H-perimidine] gave an EC50 of 6.32 µM. For `Cc1cc(C)c(S(=O)(=O)N=C2C=C(SCC(=O)O)C(=O)c3ccccc32)cc1C` [2-[1-oxidanylidene-4-(2,4,5-trimethylphenyl)sulfonylimino-naphthalen-2-yl]sulfanylethanoic acid], the EC50 was 8.24 µM. `COc1cc(CNc2ccc3[nH]c(=O)[nH]c3c2)cc(Br)c1OCC(=O)NC(C)(C)C` [2-[2-bromo-6-methoxy-4-[[(2-oxo-1,3-dihydrobenzimidazol-5-yl)amino]methyl]phenoxy]-N-tert-butylacetamide] was tested, and the EC50 was 0.87 µM. `Cc1ccc(/C=C/C2=Cc3c(sc(NC(=O)CSc4nnc(N)[nH]4)c3C#N)C(C)(C)C2)o1` [2-[(5-azanyl-1H-1,2,4-triazol-3-yl)sulfanyl]-N-[3-cyano-7,7-dimethyl-5-[(E)-2-(5-methylfuran-2-yl)ethenyl]-6H-1-benzothiophen-2-yl]ethanamide] was tested, and the EC50 was 4.19 µM. `Cc1nnc(Sc2cc(NCCO)c([N+](=O)[O-])c3nonc23)s1` [2-[[7-[(5-methyl-1,3,4-thiadiazol-2-yl)thio]-4-nitro-2,1,3-benzoxadiazol-5-yl]amino]ethanol] showed an EC50 of 0.52 µM. In the case of `CCOC(=O)CSC1=NC(=O)/C(=C/c2ccc(OC)cc2)S1` [2-[[(5Z)-5-[(4-methoxyphenyl)methylidene]-4-oxo-2-thiazolyl]thio]acetic acid ethyl ester], the EC50 is reported as 1.12 µM. For `Cc1ccc(-c2cc(-c3ccc(C)o3)nc(N)c2C#N)cc1` [2-amino-6-(5-methylfuran-2-yl)-4-(4-methylphenyl)pyridine-3-carbonitrile], the EC50 was 2.25 µM. In the case of `Cc1cc(-c2cc(-c3ccc(Cl)cc3)nc(N)c2C#N)co1` [2-azanyl-6-(4-chlorophenyl)-4-(5-methylfuran-3-yl)pyridine-3-carbonitrile], the EC50 is reported as 3.86 µM.
